The source of these data is US8163929B2, “Dihydropyridone amides as P2X7 modulators” (Roche Palo Alto LLC, priority 2008, dated 2012).

The target in this test is T1, P2X7 (UniProt Q99572).
T1 sequence (Q99572 1-595): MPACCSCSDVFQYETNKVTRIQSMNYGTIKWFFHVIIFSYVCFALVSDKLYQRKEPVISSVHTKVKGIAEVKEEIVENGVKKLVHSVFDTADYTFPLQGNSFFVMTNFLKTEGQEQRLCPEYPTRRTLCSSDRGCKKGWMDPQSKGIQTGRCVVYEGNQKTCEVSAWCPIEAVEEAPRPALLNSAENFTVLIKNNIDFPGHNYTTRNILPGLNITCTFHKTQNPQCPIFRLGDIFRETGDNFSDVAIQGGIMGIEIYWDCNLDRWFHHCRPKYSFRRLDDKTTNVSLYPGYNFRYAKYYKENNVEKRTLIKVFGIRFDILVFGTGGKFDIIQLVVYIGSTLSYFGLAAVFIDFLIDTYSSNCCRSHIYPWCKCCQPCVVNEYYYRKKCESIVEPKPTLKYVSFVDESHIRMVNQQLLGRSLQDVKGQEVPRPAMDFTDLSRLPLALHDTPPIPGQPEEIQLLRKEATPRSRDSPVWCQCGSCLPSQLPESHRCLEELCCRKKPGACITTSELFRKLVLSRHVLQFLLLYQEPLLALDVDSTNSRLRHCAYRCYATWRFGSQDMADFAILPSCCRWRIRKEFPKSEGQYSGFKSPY
Nature of the test: P2X7 activity of Table 1. The class given is cell-based. The conditions noted are these: pIC50 values for P2X7. The procedure:
Stock solutions of compounds were prepared from powders as a 10 mM DMSO stock solution. These solutions were stored at RT during the two week period of these experiments to prevent freeze-thaw of the DMSO stocks. The DMSO stocks were added to the appropriate assay buffer at a concentration of 10 μM, and then diluted serially to the final concentrations that were tested. […] The aqueous solutions of compounds as well as ATP (Sigma A7699) and BzATP (Sigma B6396) were prepared fresh for each day of experiment.
1321N1 cells stably expressing the full length human P2X7 gene (1321N1-hP2X7) and HEK293 cells stably expressing the full length rat P2X7 gene (HEK293-rP2X7) were obtained from the Roche Cell Culture Facility. 1321N1-hP2X7 cells were grown in Dulbecco's Modified Eagle's Medium (DMEM) high glucose supplemented with 10% FBS and 250 μg/mL G418. HEK293-rP2X7 cells were grown in DMEM/F-12 supplemented with 10% FBS, 1 mM CaCl2, 2 mM MgCl2, 2 mM L-Glutamine and 500 μg/ml G418. Cells were split such that they never became >70% confluent.
On the day prior to the experiment, 1321N1-hP2X7 or HEK293-rP2X7 cells were released into suspension with calcium-free PBS+Versene and washed by centrifugation with calcium-free PBS to remove the Versene. Cells were resuspended in growth medium at a density of 2.5×10^5 cells/mL and seeded into black walled, clear bottom 96 well plates (50,000 cells/well) approximately 18 hr prior to intracellular calcium flux experiments.
On the day of the experiment, plates were washed with FLIPR buffer (calcium- and magnesium-free Hank's Balanced Salt Solution (HBSS) supplemented with 10 mM Hepes, 2.5 mM probenecid and 2 mM calcium chloride) using a BIO-TEK 96 channel plate washer and incubated with […] fluo-3 dye at 37° C. for one hr. The dye was then removed by plate washing and the cells were allowed to equilibrate for 20 min at room temperature with antagonist or vehicle (FLIPR buffer). Agonist (100 μM BzATP final concentration for hP2X7; 5 μM BzATP final concentration or rP2X7) was added online with the FLIPR and fluorescence measurements made at 1 sec intervals for 60 sec followed by 3 sec intervals for a further 4 min (5 min total). A final addition of 5 μM ionomycin was made and the maximal BzATP-evoked fluorescence normalized to the maximal ionomycin-evoked fluorescence.

`Cc1ccc(=O)n(-c2ccc(C)c(NC(=O)C3=CN(C)C(=O)C[C@H]3c3ccc(F)cc3)c2)c1` [Compound 140, (S)-4-(4-Fluoro-phenyl)-1-methyl-6-oxo-1,4,5,6-tetrahydro-pyridine-3-carboxylic acid [2-methyl-5-(5-methyl-2-oxo-2H-pyridin-1-yl)-phenyl]-amide] showed a pIC50 of 7.18.

`Cc1ccc(-c2cc(C3CC3)[nH]n2)cc1NC(=O)C1=CNC(=O)C[C@H]1c1ccc(F)cc1` [Compound 62, (S)-4-(4-Fluoro-phenyl)-6-oxo-1,4,5,6-tetrahydro-pyridine-3-carboxylic acid [5-(5-cyclopropyl-1H-pyrazol-3-yl)-2-methyl-phenyl]-amide]: the pIC50 was 6.935. As for `Cc1ccc(-c2ncccn2)cc1NC(=O)C1=CNC(=O)C[C@H]1c1ccc(F)cc1` [Compound 51, (S)-4-(4-Fluoro-phenyl)-6-oxo-1,4,5,6-tetrahydro-pyridine-3-carboxylic acid (2-methyl-5-pyrimidin-2-yl-phenyl)-amide], the pIC50 was determined as 7.87.

`Cc1ccc(-c2ccnn2CC(C)C)cc1NC(=O)C1=CNC(=O)C[C@H]1c1ccc(F)cc1` [Compound 8, (S)-4-(4-Fluoro-phenyl)-6-oxo-1,4,5,6-tetrahydro-pyridine-3-carboxylic acid [5-(2-isobutyl-2H-pyrazol-3-yl)-2-methyl-phenyl]-amide]: the negative-log IC50 (pIC50) was 6.367. On to `Cc1ccc(-c2ccnn(C)c2=O)cc1NC(=O)C1=CN(CC(=O)N(C)C)C(=O)C[C@H]1c1ccc(F)cc1` [Compound 128, (S)-1-Dimethylcarbamoylmethyl-4-(4-fluoro-phenyl)-6-oxo-1,4,5,6-tetrahydro-pyridine-3-carboxylic acid [2-methyl-5-(2-methyl-3-oxo-2,3-dihydro-pyridazin-4-yl)-phenyl]-amide], for which the pIC50 came to 7.195. With `Cc1ccc(-c2ccnn(C)c2=O)cc1NC(=O)C1=CN(C)C(=O)C[C@H]1c1cccc(F)c1` [Compound 86, (S)-4-(3-Fluoro-phenyl)-1-methyl-6-oxo-1,4,5,6-tetrahydro-pyridine-3-carboxylic acid [2-methyl-5-(2-methyl-3-oxo-2,3-dihydro-pyridazin-4-yl)-phenyl]-amide] the figure was 7.62; with `Cc1ccc(-n2ncc(=O)n(CCO)c2=O)cc1NC(=O)C1=CN(C)C(=O)C[C@H]1c1cccc(F)c1` [Compound 101, (S)-4-(3-Fluoro-phenyl)-1-methyl-6-oxo-1,4,5,6-tetrahydro-pyridine-3-carboxylic acid {5-[4-(2-hydroxy-ethyl)-3,5-dioxo-4,5-dihydro-3H-[1,2,4]triazin-2-yl]-2-methyl-phenyl}-amide], 7.57; with `Cc1cc(-c2ccc(C)c(NC(=O)C3=CN(C)C(=O)C[C@H]3c3ccc(F)cc3)c2)n[nH]1` [Compound 31, (S)-4-(4-Fluoro-phenyl)-1-methyl-6-oxo-1,4,5,6-tetrahydro-pyridine-3-carboxylic acid [2-methyl-5-(5-methyl-1H-pyrazol-3-yl)-phenyl]-amide], 7.35. With `Cc1ccc(-c2ccn[nH]c2=O)cc1NC(=O)C1=CN(C)C(=O)C[C@H]1c1cccc(F)c1` [Compound 87, (S)-4-(3-Fluoro-phenyl)-1-methyl-6-oxo-1,4,5,6-tetrahydro-pyridine-3-carboxylic acid [2-methyl-5-(3-oxo-2,3-dihydro-pyridazin-4-yl)-phenyl]-amide] the figure was 7.884; with `Cc1ccc(-c2ccc[nH]c2=O)cc1NC(=O)C1=CN(C)C(=O)C[C@H]1c1ccc(F)cc1` [Compound 116, (S)-4-(4-Fluoro-phenyl)-1-methyl-6-oxo-1,4,5,6-tetrahydro-pyridine-3-carboxylic acid [2-methyl-5-(2-oxo-1,2-dihydro-pyridin-3-yl)-phenyl]-amide], 7.565; with `CCn1c(=O)cnn(-c2ccc(C)c(NC(=O)C3=CNC(=O)C[C@H]3c3ccc(F)cc3)c2)c1=O` [Compound 67, (S)-4-(4-Fluoro-phenyl)-6-oxo-1,4,5,6-tetrahydro-pyridine-3-carboxylic acid [5-(4-ethyl-3,5-dioxo-4,5-dihydro-3H-[1,2,4]triazin-2-yl)-2-methyl-phenyl]-amide], 7.575. As for `Cc1ccc(-c2ccc(=O)n(CCO)n2)cc1NC(=O)C1=CN(C)C(=O)C[C@H]1c1ccc(F)cc1` [Compound 134, (S)-4-(4-Fluoro-phenyl)-1-methyl-6-oxo-1,4,5,6-tetrahydro-pyridine-3-carboxylic acid {5-[1-(2-hydroxy-ethyl)-6-oxo-1,6-dihydro-pyridazin-3-yl]-2-methyl-phenyl}-amide], the pIC50 is 6.42. Then `Cc1ccc(-c2cc(C)n(CC(C)O)n2)cc1NC(=O)C1=CNC(=O)C[C@H]1c1ccc(F)cc1` (stereo partly drawn) [Compound 7, (S)-4-(4-Fluoro-phenyl)-6-oxo-1,4,5,6-tetrahydro-pyridine-3-carboxylic acid {5-[1-(2-hydroxy-propyl)-5-methyl-1H-pyrazol-3-yl]-2-methyl-phenyl}-amide], with 7.643; and `Cn1nccc(-c2ccc(F)c(NC(=O)C3=CNC(=O)C[C@H]3c3ccc(F)cc3)c2)c1=O` [Compound 142, (S)-4-(4-Fluoro-phenyl)-6-oxo-1,4,5,6-tetrahydro-pyridine-3-carboxylic acid [2-fluoro-5-(2-methyl-3-oxo-2,3-dihydro-pyridazin-4-yl)-phenyl]-amide], with 8.2; and `Cc1ccc(-c2ccnn(C)c2=O)cc1NC(=O)C1=CNC(=O)C[C@H]1c1ccc(F)cc1` [Compound 71, (S)-4-(4-Fluoro-phenyl)-6-oxo-1,4,5,6-tetrahydro-pyridine-3-carboxylic acid [2-methyl-5-(2-methyl-3-oxo-2,3-dihydro-pyridazin-4-yl)-phenyl]-amide], with 8.395. With `COC[C@H](O)Cn1nc(-c2ccc(C)c(NC(=O)C3=CN(C)C(=O)C[C@H]3c3cccc(F)c3)c2)cc1C` [Compound 90, (S)-4-(3-Fluoro-phenyl)-1-methyl-6-oxo-1,4,5,6-tetrahydro-pyridine-3-carboxylic acid {5-[1-((R)-2-hydroxy-3-methoxy-propyl)-5-methyl-1H-pyrazol-3-yl]-2-methyl-phenyl}-amide] the figure was 7.2; with `Cc1cnn(-c2ccc(C)c(NC(=O)C3=CNC(=O)C[C@H]3c3ccc(F)cc3)c2)c(=O)c1` [Compound 135, (S)-4-(4-Fluoro-phenyl)-6-oxo-1,4,5,6-tetrahydro-pyridine-3-carboxylic acid [2-methyl-5-(4-methyl-6-oxo-6H-pyridazin-1-yl)-phenyl]-amide], 7.655.

Compound `Cc1ccc(-c2ccc(C)c(NC(=O)C3=CNC(=O)C[C@H]3c3ccc(F)cc3)c2)nc1` [Compound 6, (S)-4-(4-Fluoro-phenyl)-6-oxo-1,4,5,6-tetrahydro-pyridine-3-carboxylic acid [2-methyl-5-(5-methyl-pyridin-2-yl)-phenyl]-amide] came in with a negative logarithm of the IC50 (pIC50) of 7.07. With `COC[C@@H](O)Cn1nc(-c2ccc(C)c(NC(=O)C3=CN(C)C(=O)C[C@H]3c3ccc(F)cc3)c2)cc1C` [Compound 92, (S)-4-(4-Fluoro-phenyl)-1-methyl-6-oxo-1,4,5,6-tetrahydro-pyridine-3-carboxylic acid {5-[1-((S)-2-hydroxy-3-methoxy-propyl)-5-methyl-1H-pyrazol-3-yl]-2-methyl-phenyl}-amide], the pIC50 is on record as 6.615. Then `Cc1ccc(-c2ccc(C)c(NC(=O)C3=CNC(=O)C[C@H]3c3cccc(F)c3)c2)nn1` [Compound 96, (S)-4-(3-Fluoro-phenyl)-6-oxo-1,4,5,6-tetrahydro-pyridine-3-carboxylic acid [2-methyl-5-(6-methyl-pyridazin-3-yl)-phenyl]-amide], with 7.48.
